Paper PMC9233675, “Ru(II) photocages enable precise control over enzyme activity with red light” (Nature Communications, 2022)
Changes are numbered by the printed parent chain. pIC50: −log10 of the molar value. Where “and” joins values, the source holds several entries; their conditions need not be identical. Equal entries are not always repeated. Where two headings read alike, the source gives them in different places.

What was measured:
CYP1B1 S269A = target: T1, CYP1B1 S269A (Homo sapiens, UniProt Q16678, S269A); assay: In cell CYP1B1 activity assay, S269A variant; settings: for logSI S269A: log of the ratio of IC50 values mutant vs WT (Fig. 3c)
T1 sequence (Q16678 1-543 S269A): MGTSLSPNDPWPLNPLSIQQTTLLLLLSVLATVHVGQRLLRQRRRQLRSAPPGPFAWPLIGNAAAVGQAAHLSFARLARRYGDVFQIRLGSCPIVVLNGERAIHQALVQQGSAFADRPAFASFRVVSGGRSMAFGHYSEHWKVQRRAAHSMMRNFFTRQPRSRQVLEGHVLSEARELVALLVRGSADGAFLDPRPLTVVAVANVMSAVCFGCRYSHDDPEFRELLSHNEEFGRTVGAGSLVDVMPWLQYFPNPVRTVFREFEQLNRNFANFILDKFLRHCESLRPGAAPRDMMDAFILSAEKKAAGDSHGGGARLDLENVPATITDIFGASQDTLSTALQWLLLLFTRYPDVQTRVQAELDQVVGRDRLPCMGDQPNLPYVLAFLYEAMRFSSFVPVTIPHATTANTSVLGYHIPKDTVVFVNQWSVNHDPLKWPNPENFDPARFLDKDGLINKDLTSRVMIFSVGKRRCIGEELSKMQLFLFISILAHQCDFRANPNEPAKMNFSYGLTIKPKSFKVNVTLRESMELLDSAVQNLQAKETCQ
Text: (§1) Site directed mutagenesis was used to probe the importance of specific active-site contacts identified through the structural assessment (Fig. 3a, b) and simulations. In all cases, conservative mutations were made to maintain polar or hydrophobic character and approximate size. The aromatic residues that frame the inhibitor binding site, Phe143 and Phe231, were mutated to Leu to determine the importance of the π interactions. In addition, the Ser127 residue, located in the upper corner of the active site on the B-C loop, was chosen for mutation based on the simulations. This amino acid transiently contacts the inhibitors, but also forms a hydrogen bond with Asp326 of the I-helix, and thus may impact the position of this helix with regards to the B-C loop. […] Rather than directly mutating these residues in the I-helix, neighboring residues Gln332 and Asp333 were targeted, with the hope of interrupting amino acid interactions that position the helix within the active site.
(§2) The ratio of IC50 values for the WT vs. the mutant are shown in Fig. 3c and reflects the importance of the specific contact; the log of the value is used to aid in visualization.
(§3) Cell lines were seeded onto Geltrex coated 96-well plates at 40,000 cells/well, and grown overnight in DMEM media containing 1 μg/mL tetracycline. The media was then replaced with Opti-MEM supplemented with 2% FBS and 1 μg/mL tetracycline. Compounds were serially diluted in Opti-MEM supplemented with 2% FBS and 1 μg/mL tetracycline and an equal volume of compound added to the cells (n = 3). Following a 1 h incubation, resorufin ethyl ether (REE; for CYP1B1 and 1A1) or dibenzylfluorescein (DBF; for 19A1) was added to the cells for a total concentration of 5 μM for REE and 1 μM for DBF. […] Dose–response curves were generated in Prism and normalized using the no-compound control (set as 100% activity) and the no-cell control (set as 0% activity; this value in the raw data reflects the background fluorescence of the dye alone).

CYP1B1 F134L = target: T2, CYP1B1 F134L (Homo sapiens, UniProt Q16678, F134L); assay: In cell CYP1B1 activity assay, F134L variant; settings: for logSI F134L: log of the ratio of IC50 values mutant vs WT (Fig. 3c)
T2 sequence (Q16678 1-543 F134L): T1 sequence (Q16678 1-543 S269A) with F134L, A269S
Text: as §1, §2, §3

CYP1B1 = target: T3, CYP1B1 (Homo sapiens, UniProt Q16678); assay: In cell activity assay for CYP1B1 (7-ethoxyresorufin conversion, HEK293 T-Rex cells); settings: for % Enzyme Activity: dark; for % Enzyme Activity red light: 660 nm light (58.7 J/cm2); for pIC50: n = 3
T3 sequence (Q16678 1-543): T1 sequence (Q16678 1-543 S269A) with A269S
Text: To rigorously assess the activity of inhibitors under biologically relevant conditions, an assay was developed for screening of CYP1B1 activity in live cells.
A stable HEK cell line was created with CYP1B1 expression under the control of tetracycline to facilitate regulated and titratable expression (see the Methods section for more details). […] The fluorogenic substrate, 7-ethoxyresorufin (REE), is a validated substrate for both CYPs and was used in both assays. Cytochrome P450 oxidoreductase (POR) is the required reductase partner for CYPs, and was also overexpressed in these systems to improve catalytic efficiency and the resulting signal for the assay.
Cell lines were generated in the HEK293 T-Rex cell line. Following transfection, cells were selected with 500 μg/mL Zeocin, and 7.5 μg/mL Blasticidin to create a stable pool. Inducible expression of CYP and POR was confirmed by immunoblot. […] The lines were maintained with 250 μg/mL Zeocin and 7.5 μg/mL Blasticidin to ensure continued selective pressure.
as §3
For the light-activated compounds, the experiment was modified as follows: Cells were seeded and grown overnight as described above. Media was replaced with L-15 containing 1 μg/mL tetracycline; L-15 media was used in place of opti-MEM™ to maintain CO2 outside the incubator, and to prevent cellular damage from light. Compounds were serially diluted in L-15 with 1 μg/mL tetracycline and added to the cells followed by a 1 h incubation. […] REE or DBF was added as described above.

CYP1B1 Q332E = target: T4, CYP1B1 Q332E (Homo sapiens, UniProt Q16678, Q332E); assay: In cell CYP1B1 activity assay, Q332E variant; settings: for logSI Q332E: log of the ratio of IC50 values mutant vs WT (Fig. 3c)
T4 sequence (Q16678 1-543 Q332E): T1 sequence (Q16678 1-543 S269A) with A269S, Q332E
Text: as §1, §2, §3

[1] = read-out: IC50 CYP1B1 Dark, Dark, conversion of 7-ethoxyresorufin (REE)
[2] = read-out: IC50 CYP1B1 Light, Light: 660 nm, 58.7 J/cm^2, REE

SMILES	logSI S269A (CYP1B1 S269A)	logSI F134L (CYP1B1 F134L)	% Enzyme Activity (CYP1B1; CYP1B1, Log Conc 0.39794)	% Enzyme Activity (CYP1B1; CYP1B1, Log Conc 1)	% Enzyme Activity (CYP1B1; CYP1B1, Log Conc -0.20412)	% Enzyme Activity (CYP1B1; CYP1B1, Log Conc -0.80618)	% Enzyme Activity (CYP1B1; CYP1B1, Log Conc -1.40824)	% Enzyme Activity (CYP1B1; CYP1B1, Log Conc -2.0103)	% Enzyme Activity (CYP1B1; CYP1B1, Log Conc -2.61236)	% Enzyme Activity (CYP1B1; CYP1B1, Log Conc -3.21442)	% Enzyme Activity (CYP1B1; CYP1B1, Log Conc -3.81648)	logSI Q332E (CYP1B1 Q332E)	% Enzyme Activity (CYP1B1; CYP1B1, Log Conc -4.41854)	% Enzyme Activity (CYP1B1; CYP1B1, Log Conc -5.0206)	% Enzyme Activity (CYP1B1; CYP1B1, Log Conc -5.62266)	pIC50 (CYP1B1; [1])	pIC50 (CYP1B1; [2])	also measured
COc1ccc(/C=C/c2ccncn2)c(OC)c1 [Compound 2]	0	0.5	-2.174% and -0.1456% and -1.116%	-3.921% and -4.348% and -1.514%	3.833% and 3.484% and 3.455%	23.2531% and 22.7484% and 23.8839%	62.2283% and 59.9476% and 62.7038%	95.9724% and 93.1289% and 92.7213%	93.2065% and 104.319% and 107.88%	101.359% and 108.531% and 103.62%	105.357% and 94.6429%	0.7						pIC50 (CYP1B1 S269A): 7.14; Ratio IC50 (mutant)/ IC50 (WT), S269A (CYP1B1 S269A): 1; pIC50 (CYP1B1 F134L): 6.62; Ratio IC50 (mutant)/ IC50 (WT), F134L (CYP1B1 F134L): 3; p IC50(uM) (CYP1B1; CYP1B1, negative log of the IC50 in μM): 1.119; pIC50 (CYP1B1 Q332E): 6.40; Ratio IC50 (mutant)/ IC50 (WT), Q332E (CYP1B1 Q332E): 5.3
COc1cc(/C=C/c2ccc(OC)cc2OC)cc(OC)c1 [Compound 1, reference compound]	0.3	1										0.6						
COc1ccc(C=Cc2ccncc2)c(OC)c1 [Compound 3]	0.8	1.7	-5.843% and -5.409% and -4.402%	-2.892% and -0.02892% and -1.938%	-3.135% and -2.441% and -3.396%	0.2661% and -0.4628% and 0.4396%	4.865% and 3.164% and 4.917%	14.3229% and 13.9758% and 14.3403%	26.2625% and 28.9697% and 28.1888%	46.5321% and 40.302% and 39.9202%	56.0248% and 55.8165% and 54.8794%	2.2	73.8474% and 69.3527% and 65.1356%	73.3268% and 74.7498% and 84.3119%	93.7872% and 77.0753% and 77.7868%			% Enzyme Activity (CYP1B1; CYP1B1, Log Conc -6.22472): 92.9716% and 93.6311% and 94.2558%; % Enzyme Activity (CYP1B1; CYP1B1, Log Conc -6.82678): 109.545% and 110.274% and 80.1816%
COc1ccc(/C=C/c2cc[n+]([Ru-4]345([n+]6ccccc6-c6cccc([n+]63)-c3cccc[n+]34)[n+]3c(cc(C(=O)[O-])c4ccccc43)-c3cc(C(=O)[O-])c4ccccc4[n+]35)cc2)c(OC)c1 [Compound 6]			37.9328% and 31.3874%	-5.282% and -4.5489%	83.1691% and 81.3495%	99.722% and 104.043%	109.148% and 104.422%	132.424% and 133.005%	99.1913% and 124.791%	127.496% and 122.416%	106.293% and 106.621%		105.939% and 103.083%	100.606% and 105.459%	101.365% and 96.184%	5.72	9.52	% Enzyme Activity red light (CYP1B1; CYP1B1, Log Conc 0.39794): -2.704% and -2.565%; % Enzyme Activity red light (CYP1B1; CYP1B1, Log Conc 1): -2.451% and -1.971%; % Enzyme Activity red light (CYP1B1; CYP1B1, Log Conc -0.20412): -2.413% and -1.554%; % Enzyme Activity red light (CYP1B1; CYP1B1, Log Conc -0.80618): -1.314% and -2.085%; % Enzyme Activity red light (CYP1B1; CYP1B1, Log Conc -1.40824): -2.274% and -3.677%; % Enzyme Activity red light (CYP1B1; CYP1B1, Log Conc -2.0103): 1.567% and 0.556%; % Enzyme Activity red light (CYP1B1; CYP1B1, Log Conc -2.61236): 27.0407% and 26.6869%; % Enzyme Activity red light (CYP1B1; CYP1B1, Log Conc -3.21442): 48.2689% and 41.5972%; % Enzyme Activity red light (CYP1B1; CYP1B1, Log Conc -3.81648): 59.7422% and 63.5835%; % Enzyme Activity red light (CYP1B1; CYP1B1, Log Conc -4.41854): 78.0389% and 65.5042%; % Enzyme Activity red light (CYP1B1; CYP1B1, Log Conc -5.0206): 106.495% and 94.3139%; % Enzyme Activity red light (CYP1B1; CYP1B1, Log Conc -5.62266): 87.0104% and 112.181%
COc1ccc(/C=C/c2cc[n+]([Ru-4]345([n+]6ccccc6-c6cccc([n+]63)-c3cccc[n+]34)[n+]3c(cc(C(=O)[O-])c4ccccc43)-c3cc(C(=O)[O-])c4ccccc4[n+]35)cn2)c(OC)c1 [Compound 5]																5.76	7.77	
